Experimental data as given in ChEMBL document CHEMBL1201862, “PubChem BioAssay data set” (2004).
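96-well plates; 48 h exposure; 5 concentrations. Endpoints by linear interpolation between flanking doses. Not reached: highest tested concentration assigned. At the GI50, growth is halved.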 Active and inactive are the calls of the source. Rule as the data show it: active = GI50 up to about 1.1 µM and inactive = higher.

Key:
Assay in all cases: DTP human tumour cell line panel, 48 h
786-0 = test system: 786-0
A498 = test system: A498
A549 = test system: A549
ACHN = test system: ACHN
CAKI-1 = test system: CAKI-1
CCRF-CEM = test system: CCRF-CEM
COLO 205 = test system: COLO 205
DLD-1 = test system: DLD-1
DMS-114 = test system: DMS-114
DMS-273 = test system: DMS-273
EKVX = test system: EKVX
HCC 2998 = test system: HCC 2998
HCT-116 = test system: HCT-116
HCT-15 = test system: HCT-15
HL-60 = test system: HL-60
HOP-18 = test system: HOP-18
HOP-62 = test system: HOP-62
HOP-92 = test system: HOP-92
HT-29 = test system: HT-29
IGROV-1 = test system: IGROV-1
K562 = test system: K562
KM-20L2 = test system: KM-20L2
KM12 = test system: KM12
LOX IMVI = test system: LOX IMVI
LXFL 529 = test system: LXFL 529
M14 = test system: M14
M19-MEL = test system: M19-MEL
MOLT-4 = test system: MOLT-4
Malme-3M = test system: Malme-3M
NCI-H226 = test system: NCI-H226
NCI-H23 = test system: NCI-H23
NCI-H460 = test system: NCI-H460
OVCAR-3 = test system: OVCAR-3
OVCAR-4 = test system: OVCAR-4
OVCAR-5 = test system: OVCAR-5
OVCAR-8 = test system: OVCAR-8
RPMI-8226 = test system: RPMI-8226
RXF 393 = test system: RXF 393
RXF 631 = test system: RXF 631
SF-268 = test system: SF-268
SF-295 = test system: SF-295
SF-539 = test system: SF-539
SK-MEL-28 = test system: SK-MEL-28
SK-MEL-2 = test system: SK-MEL-2
SK-MEL-5 = test system: SK-MEL-5
SK-OV-3 = test system: SK-OV-3
SN12C = test system: SN12C
SNB-75 = test system: SNB-75
SR = test system: SR
SW-620 = test system: SW-620
TK-10 = test system: TK-10
U-251 = test system: U-251
UACC-257 = test system: UACC-257
UACC-62 = test system: UACC-62
UO-31 = test system: UO-31
XF498 = test system: XF498
NCI-H522 = test system: NCI-H522
SNB-19 = test system: SNB-19
SNB-78 = test system: SNB-78

For `N#CC1=C(c2ccccc2)C(O)(c2ccccc2)NC1=O` (stereo not drawn), the GI50 (786-0) was > 100 µM (inactive), the GI50 (A498) was 24.6 µM (inactive) and the GI50 (A549) was > 100 µM (inactive). For the same compound, the GI50 (ACHN) was 37.5 µM (inactive), the GI50 (CAKI-1) was > 100 µM (inactive) and the GI50 (CCRF-CEM) was 70.5 µM (inactive). The GI50 (COLO 205) was > 100 µM (inactive), the GI50 (DLD-1) was 71.3 µM (inactive) and the GI50 (DMS-114) was > 100 µM (inactive). For the same compound, the GI50 (DMS-273) was > 100 µM (inactive), the GI50 (EKVX) was > 100 µM (inactive) and the GI50 (HCC 2998) was > 100 µM (inactive). The GI50 (HCT-116) was > 100 µM (inactive), the GI50 (HCT-15) was greater than 100 µM and the GI50 (HL-60) was > 100 µM (inactive). For the same compound, the GI50 (HOP-18) was 31.7 µM (inactive), the GI50 (HOP-62) was > 100 µM (inactive) and the GI50 (HOP-92) was 19.5 µM (inactive). The GI50 (HT-29) was 41.1 µM (inactive), the GI50 (IGROV-1) was > 100 µM (inactive) and the GI50 (K562) was > 100 µM (inactive). For the same compound, the GI50 (KM-20L2) was 47.5 µM (inactive), the GI50 (KM12) was > 100 µM (inactive) and the GI50 (LOX IMVI) was > 100 µM (inactive). The GI50 (LXFL 529) was > 100 µM (inactive), the GI50 (M14) was 52.4 µM (inactive) and the GI50 (M19-MEL) was > 100 µM (inactive). The GI50 (MOLT-4) was > 100 µM (inactive), the GI50 (Malme-3M) was 25.2 µM (inactive) and the GI50 (NCI-H226) was 51.5 µM (inactive). For the same compound, the GI50 (NCI-H23) was 42 µM (inactive), the GI50 (NCI-H460) was 58.3 µM (inactive) and the GI50 (OVCAR-3) was > 100 µM (inactive). The GI50 (OVCAR-4) was > 100 µM (inactive), the GI50 (OVCAR-5) was 39.3 µM (inactive) and the GI50 (OVCAR-8) was > 100 µM (inactive). The GI50 (RPMI-8226) was 75 µM (inactive), the GI50 (RXF 393) was > 100 µM (inactive) and the GI50 (RXF 631) was 99.8 µM (inactive). The GI50 (SF-268) was > 100 µM (inactive), the GI50 (SF-295) was 37.4 µM (inactive) and the GI50 (SF-539) was 27.7 µM (inactive). For the same compound, the GI50 (SK-MEL-28) was > 100 µM (inactive), the GI50 (SK-MEL-2) was 99.1 µM (inactive) and the GI50 (SK-MEL-5) was 68.1 µM (inactive). For the same compound, the GI50 (SK-OV-3) was 32.7 µM (inactive), the GI50 (SN12C) was 48.3 µM (inactive) and the GI50 (SNB-75) was > 100 µM (inactive). The GI50 (SR) was 44.2 µM (inactive), the GI50 (SW-620) was > 100 µM (inactive) and the GI50 (TK-10) was > 100 µM (inactive). The GI50 (U-251) was > 100 µM (inactive), the GI50 (UACC-257) was > 100 µM (inactive) and the GI50 (UACC-62) was > 100 µM (inactive). For the same compound, the GI50 (UO-31) was 82.8 µM (inactive) and the GI50 (XF498) was > 100 µM (inactive).

For `NNC(=O)N/N=C1\CN(c2ccc(Cl)cc2Cl)C(=O)C(=O)C1c1nc2ccccc2o1` (stereo not drawn), the GI50 (786-0) was > 100 µM (inactive), the GI50 (A498) was > 100 µM (inactive) and the GI50 (A549) was > 100 µM (inactive). The GI50 (ACHN) was > 100 µM (inactive), the GI50 (CAKI-1) was > 100 µM (inactive) and the GI50 (CCRF-CEM) was > 100 µM (inactive). The GI50 (COLO 205) was > 100 µM (inactive), the GI50 (DLD-1) was > 100 µM (inactive) and the GI50 (DMS-114) was > 100 µM (inactive). The GI50 (DMS-273) was > 100 µM (inactive), the GI50 (EKVX) was > 100 µM (inactive) and the GI50 (HCC 2998) was > 100 µM (inactive). The GI50 (HCT-116) was > 100 µM (inactive), the GI50 (HOP-62) was > 100 µM (inactive) and the GI50 (HOP-92) was > 100 µM (inactive). For the same compound, the GI50 (HT-29) was > 100 µM (inactive), the GI50 (IGROV-1) was > 100 µM (inactive) and the GI50 (K562) was > 100 µM (inactive). For the same compound, the GI50 (KM-20L2) was > 100 µM (inactive), the GI50 (KM12) was > 100 µM (inactive) and the GI50 (LXFL 529) was > 100 µM (inactive). For the same compound, the GI50 (M14) was > 100 µM (inactive), the GI50 (M19-MEL) was > 100 µM (inactive) and the GI50 (MOLT-4) was > 100 µM (inactive). The GI50 (Malme-3M) was > 100 µM (inactive), the GI50 (NCI-H226) was > 100 µM (inactive) and the GI50 (NCI-H23) was 85.5 µM (inactive). The GI50 (NCI-H460) was > 100 µM (inactive), the GI50 (NCI-H522) was > 100 µM (inactive) and the GI50 (OVCAR-3) was > 100 µM (inactive). For the same compound, the GI50 (OVCAR-4) was > 100 µM (inactive), the GI50 (OVCAR-5) was > 100 µM (inactive) and the GI50 (OVCAR-8) was > 100 µM (inactive). The GI50 (RPMI-8226) was > 100 µM (inactive), the GI50 (RXF 631) was > 100 µM (inactive) and the GI50 (SF-268) was > 100 µM (inactive). The GI50 (SF-539) was > 100 µM (inactive), the GI50 (SK-MEL-28) was > 100 µM (inactive) and the GI50 (SK-MEL-2) was > 100 µM (inactive). For the same compound, the GI50 (SK-MEL-5) was > 100 µM (inactive), the GI50 (SK-OV-3) was > 100 µM (inactive) and the GI50 (SN12C) was > 100 µM (inactive). The GI50 (SNB-19) was > 100 µM (inactive), the GI50 (SNB-75) was > 100 µM (inactive) and the GI50 (SNB-78) was 39.1 µM (inactive). The GI50 (SR) was > 100 µM (inactive), the GI50 (SW-620) was > 100 µM (inactive) and the GI50 (U-251) was 54.8 µM (inactive). The GI50 (UACC-257) was > 100 µM (inactive), the GI50 (UACC-62) was > 100 µM (inactive) and the GI50 (UO-31) was 92.5 µM (inactive). For the same compound, the GI50 (XF498) was > 100 µM (inactive).
